How the values were obtained:
RAW264.7 cells = assay: RAW264.7 macrophages, western blot of NLRP3 pathway after C3a; assay type: cell-based; conditions: n = 3 per group
Method: (§1) RAW264.7 cells were provided by the Hubei Key Laboratory of Genetics and Molecular Mechanism of Cardiologic Disorders, Huazhong University of Science and Technology (China), and cultured in DMEM containing 10% fetal bovine serum at 37 ℃ and 5% CO2. RAW264.7 cells were incubated with 50 nM C3a for 12 h and then were washed twice with PBS. The cells were incubated with serum-free DMEM for 12 h and the supernatants were collected. After pretreatment with 100 ng/ml of IL-1RA for 1 h, we added the supernatants from the control or C3a group to PASMCs respectively for 24 h.
Proteins were collected from the fresh frozen-rat lung tissues using RIPA lysis buffer. Protein concentration was quantified using a BCA reagent. Equal amounts of protein were electrophoretically separated on 10% SDS polyacrylamide gel, transferred to PVDF membranes, and probed with desired primary antibodies overnight at 4 °C. Membranes were then washed with TBST and incubated with anti-mouse IgG (1:5000) or anti-rabbit IgG (1:5000) horseradish peroxidase conjugated antibodies as indicated. Blots were developed with the enhanced chemiluminescence system. To compare and quantify levels of proteins, the density of each band was measured using Image J software. Equal loading for total cell or tissue lysates was determined by β-Actin western blot.

[1] = tested on: MCT-induced rat PAH model; assay: MCT-induced rat PAH model: hemodynamics, RV hypertrophy, vessel morphology; assay type: in vivo; conditions: single i.p. injection 40 mg/kg; control group 28.00 ± 3.55 mmHg; mean ± SEM; n = 6 per group; SEM
Method: In the current study, two animal experiments were conducted successively. 30 rats were randomly divided into two groups (control group and MCT group, n = 15 per group) in the first experiment. MCT group rats received a single intraperitoneally injection of MCT (40 mg/kg) on day 1 to induce PAH while control group rats received an equivoluminal saline injection intraperitoneally. For the second animal experiment, the rats were assigned into four groups (control group, MCT group, CP40-KK group, and MCT + CP40-KK group, n = 15 per group). The control group was given the same volume of saline subcutaneously while the CP40-KK group rats only received CP40-KK (2 mg/kg) by subcutaneous injection from day 15 to day 28 continuously. The rats in the MCT group and MCT + CP40-KK group were received a single intraperitoneally injection of MCT (40 mg/kg) on day 1 and subcutaneously injected with either an equal volume of saline or CP40-KK (2 mg/kg) at day 15 to day 28 continuously. The dose selection of MCT and CP40-KK in our study was established based on previous studies.
Four weeks after the MCT injection, the experimental rats were weighed and anesthetized by intraperitoneal injecting pentobarbital sodium (40 mg/kg). After being anesthetized, rats were fixed in the supine position. A 3F polyethylene catheter filling with heparin was introduced into the right ventricle (RV) through the right jugular vein and the right atrium. Right ventricle systolic pressure (RVSP) was assessed by a pressure transducer and PowerLab system (AD Instruments, Australia). Pressure recordings were measured over a 2 min period and analyzed with Powerlab Pro Software (AD Instruments, Australia). After the hemodynamic study, the rats were euthanized by an overdose of anesthesia, and their lungs and hearts were dissected for further evaluation. The dry weights of the RV and left ventricle (LV) + septum were measured to calculate the RV/(LV + S) ratio and the RV / body weight (RV/BW). The left lung was fixed in 4% paraformaldehyde, and the right lung was snap-frozen in liquid nitrogen and stored at − 80 °C for further analysis.
Fixed lung samples were further fixed in 4% buffered paraformaldehyde for 24 h, embedded in paraffin, and processed for sectioning at 5 μm thick. Hematoxylin and eosin (H&E) staining were performed on paraffin-fixed lung tissue slides. The percent medial wall thickness (WT%) and percent medial wall area (WA%) were used to assess the extent of pulmonary vascular remodeling. WT% = (external diameter − internal diameter)/(external diameter) × 100%; WA% = (external area − internal area)/external area × 100%. All data were obtained and analyzed in a blinded manner.

C3 = conditions: cited from earlier work
From the text: The selective C3 inhibitor CP40 has been found therapeutically effective in various diseases, but has yet not been tested in the PAH model. In the current study, we applied the newly identified CP40 analog, CP40-KK, with two more lysine attached to the C terminus, in the MCT-induced PAH rat model.

[2] = tested on: primary rat pulmonary arterial smooth muscle cells (PASMCs); assay: PASMC proliferation with macrophage supernatant (EdU assay, western blot); assay type: cell-based; conditions: 24 h, n = 3 per group
Method: PASMCs were isolated from rat distal pulmonary arteries and then cultured in Dulbecco’s modified Eagle’s medium (DMEM) containing 20% fetal bovine serum as previously described.
Cells seeded in the 24-well plate were labeled with 10 μmol/L of EdU (Meilun, Dalian, China) for 2 h at 37 ℃. Subsequently, cells were fixed in 4% of paraformaldehyde for 20 min and incubated in phosphate-buffered saline (PBS) containing 0.5% of Triton- X100 for 15 min. After being washed three times with PBS, 150 μL of dying solution was applied per well for 30 min and nuclei staining with Hoechst 33,342 for 10 min away from light. The proliferating cells were labeled with green fluorescence, with a maximum excitation wavelength of 491 nm and a maximum emission wavelength of 518 nm for 488-Azide. The proliferative rate = EdU-positive cells/Hoechst-positive cells.
as §1, with “After pretreatment with 100 ng/ml of IL-1RA for 1 h, we added the supernatants from the control or C3a group to PASMCs respectively for 24 h.” left out

NC(N)=NCCC[C@H](NC(=O)COCC(c1ccccc1)c1ccccc1)C(=O)O.O=C(O)C(F)(F)F [C3aRa, SB290157 trifluoroacetate, reference compound]
cellular levels of NLRP3, cleaved-caspase-1, cleaved-IL1β and IL18 (RAW264.7 cells; RAW264.7 treated with C3a (50 nM), 1 mM C3aRa): reduced

C[C@H]1C(=O)O[C@@H]2CCN3CC=C(COC(=O)[C@](C)(O)[C@]1(C)O)[C@H]23 [MCT, Monocrotaline, reference compound]
RVSP after 4 weeks of MCT treatment [1]: 63.03 ± 4.19 mmHg

CC[C@H](C)[C@H](N)C(=O)N[C@H]1CSSC[C@@H](C(=O)N[C@H](C(N)=O)[C@@H](C)O)NC(=O)[C@H](CCCNC(=N)N)NC(=O)[C@H](Cc2c[nH]cn2)NC(=O)[C@H](Cc2c[nH]cn2)NC(=O)CNC(=O)[C@H](Cc2c[nH]c3ccccc23)NC(=O)[C@H](CC(=O)O)NC(=O)[C@H](CCC(N)=O)NC(=O)[C@H](C(C)C)NC(=O)[C@H](C(C)C)NC1=O [compstatin]
species specificity of C3 binding (C3): can bind only primates but not rodent C3

C3a: complement anaphylatoxin C3a protein used at 50 nM to stimulate macrophages
cleaved-IL1β production by macrophages (RAW264.7 cells; RAW264.7, C3a 50 nM): stimulated macrophages to produce cleaved-IL1β

IL-1RA: IL-1RA protein reagent (MedChemExpress HY-P72566), 100 ng/ml pretreatment of PASMCs
PCNA and Cyclin D1 expression in PASMCs ([2]; C3a-supernatant + IL-1RA vs C3a-supernatant + PBS, western blot): decreased | number of EdU-positive PASMCs increased by macrophage-conditioned media ([2]; C3a-supernatant, 100 ng/ml IL-1RA pretreatment 1 h): reversed
